Source: US20080311126A1, “Antisense Oligonucleotides Directed to Ribonucleotide Reducatase R2 and Uses Thereof in Combination Therapies for the Treatment of Cancer” (Genesense Technologies, Inc, priority 2004, published 2008)

Experiments:
[1] = system: Caki-1 human renal carcinoma; test: Caki-1 renal tumour xenograft in SCID mice, SEQ ID NO:1 and interferon alpha; format: in vivo
Procedure: Cell Line: Human renal carcinoma cell line (Caki-1) was grown as monolayer culture in Minimum essential medium (α-MEM) supplemented with 10% fetal bovine serum (FEBS), 0.1 mM non-essential amino acid, 1.0 mM sodium pyruvate, 100 U/ml penicillin, 100 μg/ml streptomycin and 0.25 μg/ml amphotericin B and 2 mM L-alanyl-L-glutamine at 37° C. in an atmosphere of 5% CO2 in air. The tumour cells were routinely subcultured twice weekly by trypsin-EDTA treatment. The cells were harvested from subconfluent logarithmically growing culture by treatment with trypsin-EDTA and counted for tumour inoculation.
Tumour Inoculation: An acclimation period of at least 7 days was allowed between animal receipt and commencement of tumour inoculation. When the female SCID mice were 6-7 weeks of age (20-25 g), each mouse was subcutaneously (s.c.) injected with 5×10^6 Caki-1 human renal carcinoma cells in 0.1 ml of PBS at the right flank of the mice to induce tumour growth.
Dose-Preparation and Treatment: The dose for SEQ ID NO:1 was formulated using the following procedure. From a concentrated stock solution (usually prepared in ddH2O at a concentration of 50 mg/ml and kept at −80° C.), SEQ ID NO:1 was diluted with saline to achieve a final target concentration of 1 or 2.5 mg/ml on the first day of dosing. Enough SEQ ID NO:1 was diluted so that the compound could be administered by bolus infusion into the tail vein every other day for the duration of the experiment. Recombinant interferon alfa-2b (Intron A™) was utilized according to the dose and treatment schedules below. The treatments were started 7 days after the tumour cell inoculation when the tumour size reached an approximate volume of 125 mm^3. Each treatment group contained 10 tumour-bearing mice. Routes of administration are indicated as follows: intravenous (i.v.) and intratumoural (i:t.).
Groups and Treatments: The following treatment groups were evaluated: • 1. Saline treated group-1: saline 0.1 ml/mouse/48 hours, i.v., n=10 • 2. Saline treated group-2: saline 0.05 ml/mouse/5 days/week, i.t., n=10 • 3. […] Intron A 10^3 unit/5 days/week treated group: 10^3 unit Intron A in 0.05 ml saline, i.t., n=10 • 6. Intron A 10^5 unit/5 days/week treated group: 10^5 unit Intron A in 0.05 ml saline, i.t., n=10 • 7. SEQ ID NO:1 1 mg/kg Plus Intron A 10^3 treated group: “3+5”, n=10 • 8. SEQ ID NO:1 1 mg kg Plus Intron A 10^5 treated group: “3+6”, n=10 • 9. SEQ ID NO:1 2.5 mg/kg Plus Intron A […], n=10 • 10. SEQ ID NO:1 2.5 mg/kg Plus Intron A 10^5 treated group: “4+6”, n=10
Mice received 25 treatments with SEQ ID NO:1 and 30 treatments with Intron A. The dosing schedule for Intron A was: treatment with Intron A for 3 consecutive weeks, 1 week off, and treatment with Intron A again for another 3 consecutive weeks. The dosing schedule for SEQ ID NO:1 was treatment with SEQ ID NO:1 every other day for the duration of the experiment.
Endpoints: The effects of SEQ ID NO:1 and Intron A on tumour growth were determined. Tumour sizes were measured every week from day 7 after the tumour cell inoculation in two dimensions using a caliper, and the volume was expressed in mm^3 using the formula: V=0.5 a×b^2, where a and b are the long and short diameters of the tumour, respectively. Mean tumour volumes calculated from each measurement were then plotted in a standard graph to compare the anti-tumour efficacy to that of controls. A day after the last treatment, tumours were excised from the animals and their weights were measured.
A second independent in vivo study was conducted as described in Example 1 utilizing SCID mice (female, 6 weeks old) and Caki-1 (human renal carcinoma cell line) to test the efficacy of SEQ ID NO:1 in combination with IFN alpha Briefly, 5×10^6 Caki-1 human renal carcinoma cells in 0.1 ml of PBS were injected subcutaneously at the right flank of the mice to induce tumour growth. Treatments started on the seventh day after tumour cell injection. […]

[2] = system: BxPC-3 human pancreatic carcinoma cells; test: BxPC-3 gemcitabine resistant pancreatic carcinoma xenograft in CD-1 nude mice; format: in vivo
Procedure: BxPC-3 human pancreatic carcinoma cells (3×10^6 cells in 100 μl of PBS) were subcutaneously injected into the right flank of 6-7 weeks old female CD-1 nude mice. BxPC-3 is a gemcitabine resistant call line. After the size of tumour reached an approximate volume of 100 mm^3, 21 days post tumour cell injection, SEQ ID NO:1 was administered by bolus infusion into the tail vein every other day at 10 mg/kg 17 times. Control animals received saline alone for the same period. Antitumour effect of SEQ ID NO:1 was further compared to that of Gemcitabine. Gemcitabine was administered intravenously every three days at a dose of 100 mg/kg. Antitumour activities were estimated by the inhibition of tumour volume, which was measured with caliper. Each point represents mean tumour volume calculated from 10 animals per experimental group. […] As expected, treatment with Gemcitabine during the same period was ineffective against Gemcitabine-resistant tumour (FIGS. 19A & B).

[3] = system: Human Glioblastoma-Astrocytoma; test: Tumour growth assay, human glioblastoma-astrocytoma in mice; format: in vivo
[4] = Phase I single agent study of SEQ ID NO:1 in patients with solid tumours or melanoma; format: in vivo, human

## GGCTAAATCGCTCCACCAAG (chemistry not given here) [SEQ ID NO: 1, antisense oligonucleotide that hybridizes to the coding region of human ribonucleotide reductase R2 mRNA]
[1]; Example 2, SEQ ID NO:1 1 or 2.5 mg/kg/48 hours i.v., Intron A 10^3 or 10^5 unit 5 days/week i.t.
  anti-tumour efficacy (tumour volume, tumour weight): significant anti-tumour efficacy
[1]; Example 3, SEQ ID NO:1 2.5 or 5 mg/kg every 2 days i.v., Intron 10^5 unit 5 days/week i.t.
  anti-tumour efficacy (tumour volume, tumour weight): significant anti-tumour efficacy
[1]; Example 4, oligonucleotide 2.5 mg/kg every 2 days i.v., Intron A 10^5 unit 5 days/week i.t.
  anti-tumour efficacy (tumour volume, tumour weight): significant anti-tumour efficacy
[2]; BxPC-3 (pancreatic), Gemcitabine resistance, CD-1
  Tumour weight as % of saline control: 5.8%
[2]; SEQ ID NO:1 10 mg/kg 17 times i.v., Gemcitabine 100 mg/kg i.v. every three days
  antitumour effect (tumour volume): significant delay of tumour growth
[3]
  Inhibition of tumour weight: approximately 65%
[4]; human subjects
  dose with no evidence of toxicity: 148.0 mg/m^2/day
[4]; patients with solid tumours or melanoma
  maximum tolerated dose (MTD): 222.0 mg/m^2/day
